Laboratory results reported in the NIST ThermoML archive (doi:10.1016/j.jct.2013.09.041).

Tests used:
[1] = mn = molality of the nth substance listed, in mol/kg; conditions: 323.15 K, 101 kPa, Liquid, Vibrating tube method
[2] = osmotic coefficient (dimensionless); mn = molality of the nth substance listed, in mol/kg; conditions: 323.15 K, 101 kPa, Liquid, A Knauer K-7000 vapor pressure osmometer
[3] = 323.15 K, 101.33 kPa, Liquid; for speed of sound: Sing-around technique in a fixed-path interferometer; for mass density: Vibrating tube method

CCCCCCn1cc[n+](C)c1.O=S(=O)([O-])C(F)(F)F [1-hexyl-3-methylimidazolium trifluoromethanesulfonate] + CC(C)O
Conditions | mass density [kg/m3] | osmotic coefficient
[1], m1 = 0.051 | 763.8 | –
[1], m1 = 0.102 | 768.55 | –
[1], m1 = 0.152 | 773.15 | –
[1], m1 = 0.204 | 777.8 | –
[1], m1 = 0.252 | 782.08 | –
[1], m1 = 0.301 | 786.21 | –
[1], m1 = 0.355 | 790.72 | –
[1], m1 = 0.404 | 794.75 | –
[1], m1 = 0.455 | 798.81 | –
[1], m1 = 0.504 | 802.65 | –
[1], m1 = 0.606 | 810.57 | –
[1], m1 = 0.709 | 818.13 | –
[1], m1 = 0.802 | 824.81 | –
[1], m1 = 0.908 | 831.9 | –
[1], m1 = 1.012 | 838.62 | –
[2], m1 = 0.026 | – | 0.991
[2], m1 = 0.043 | – | 0.954
[2], m1 = 0.1 | – | 0.886
[2], m1 = 0.2 | – | 0.758
[2], m1 = 0.305 | – | 0.659
[2], m1 = 0.412 | – | 0.616
[2], m1 = 0.526 | – | 0.585
[2], m1 = 0.819 | – | 0.538
[2], m1 = 1.221 | – | 0.476
[2], m1 = 1.62 | – | 0.444
[2], m1 = 2.033 | – | 0.42
[2], m1 = 2.449 | – | 0.387
[2], m1 = 2.822 | – | 0.378
[2], m1 = 3.344 | – | 0.364
[2], m1 = 3.646 | – | 0.359

CC(C)O [propan-2-ol]
[3]
Conditions | mass density [kg/m3] | speed of sound [m/s]
– | 758.63 | 1050.9

CCCO [propan-1-ol]
[3]
Conditions | mass density [kg/m3] | speed of sound [m/s]
– | 779.09 | 1121.8

CCCCCCn1cc[n+](C)c1.O=S(=O)([O-])C(F)(F)F [1-hexyl-3-methylimidazolium trifluoromethanesulfonate] + CCCCO
Conditions | mass density [kg/m3] | osmotic coefficient
[1], m1 = 0.052 | 791.18 | –
[1], m1 = 0.103 | 795.76 | –
[1], m1 = 0.152 | 799.99 | –
[1], m1 = 0.202 | 804.23 | –
[1], m1 = 0.254 | 808.45 | –
[1], m1 = 0.303 | 812.46 | –
[1], m1 = 0.353 | 816.43 | –
[1], m1 = 0.405 | 820.46 | –
[1], m1 = 0.448 | 823.73 | –
[1], m1 = 0.504 | 827.88 | –
[1], m1 = 0.598 | 834.75 | –
[1], m1 = 0.701 | 841.92 | –
[1], m1 = 0.792 | 848.08 | –
[1], m1 = 0.906 | 855.49 | –
[1], m1 = 1.01 | 861.88 | –
[2], m1 = 0.028 | – | 0.828
[2], m1 = 0.045 | – | 0.721
[2], m1 = 0.114 | – | 0.599
[2], m1 = 0.198 | – | 0.543
[2], m1 = 0.302 | – | 0.482
[2], m1 = 0.427 | – | 0.453
[2], m1 = 0.526 | – | 0.434
[2], m1 = 0.81 | – | 0.399
[2], m1 = 1.224 | – | 0.356
[2], m1 = 1.64 | – | 0.339
[2], m1 = 2.045 | – | 0.329
[2], m1 = 2.417 | – | 0.313
[2], m1 = 2.827 | – | 0.298
[2], m1 = 3.312 | – | 0.282

CCCCO [butan-1-ol]
[3]
Conditions | mass density [kg/m3] | speed of sound [m/s]
– | 786.32 | 1157.3
